# From US20200094031A1, “TREATMENT OF A DISEASE OF THE GASTROINTESTINAL TRACT WITH A CHST15 INHIBITOR” (Progenity, Inc., priority 2017, published 2020)
# Read-outs that look alike come from different tables or passages of the source.
# How the values were obtained:
# [1] = Blood pharmacokinetics of oral vs intra-cecal tacrolimus (Example 13); set-up: species or system Yorkshire-Cross farm swine; conditions: in vivo; for concentration at 12 hr: Trough (12 hr)
# Description: (§1) No further randomization procedure was employed.
# [2] = Tissue, plasma, rectal sample and GI content pharmacokinetics of tacrolimus, oral vs intra-cecal ingestible device (Example 10); set-up: species or system Yorkshire-Cross farm swine; conditions: in vivo
# Procedure: The primary objective of this study was to compare the tissue, plasma, rectal sample, and GI content pharmacokinetics of tacrolimus through oral versus intra-cecal ingestible device delivery in normal Yorkshire-Cross farm swine.
# as §1
# Animals in Group 1 received an ingestible device containing 0.8 mL of vehicle solution (80% alcohol, 20% HCO-60). Animals in Group 2 received orally […] liquid formulation of tacrolimus at 4 mg/0.8 mL per animal (Prograf: 5 mg/mL). Animals in Group 3 received intra-cecally an ingestible device containing tacrolimus at 1 mg in 0.8 mL per ingestible device. Animals in Group 4 received intra-cecally an ingestible device containing tacrolimus at 2 mg in 0.8 mL per ingestible device. Animals in Group 5 received intra-cecally an ingestible device containing tacrolimus at 4 mg in 0.8 mL per ingestible device. To control for potential confounding effects of the surgery, all groups fast on Day −11 at least 24 hr before being subjected to anesthesia followed by surgical placements of a cecal port by a veterinary surgeon at Day −10. All animals were fasted for at least 12 hr prior to dosing on Day 1. Animals were dosed via either intra-cecal dosing (IC) or oral dosing (PO) at Day 1 (between 6-8 p.m.). All animals resumed feeding at approximately 4 hours after dose (11-12 p.m. after dosing).
# Animals in Group 1 (Vehicle Control) were administered a single intra-cecal ingestible device containing 0.8 mL Vehicle solution (80% alcohol, 20% castor oil (HCO-60) on Day 1. On Day −10 the animals were anesthetized, and a veterinary surgeon surgically placed an intra-cecal port in each animal. On Day 1, each animal was placed into a sling then a single intra-cecal ingestible device containing 0.8 mL vehicle solution (80% alcohol, 20% castor oil (HCO-60)) is introduced by the veterinary surgeon into the cecum via the cecal port in each animal. Following ingestible device placement, the animals were removed from the slings and placed back into their pens with water. All animals resumed feeding at approximately 4 hours after dose. […] A total of 60 samples were collected.
# Approximately 200˜400 mg of rectal content were collected, if available, with a fecal swab (Copan Diagnostics Nylon Flocked Dry Swabs, 502CS01). The fecal swab was pre-weighed and weighed after collection in the collection tube (Sterile Tube and Cap No Media, PFPM913S), and the sample weight was recorded. The fecal swab was broken via the breakpoint, and was stored in the collection tube, and immediately frozen at −70° C. […] Immediately following euthanasia, tissue was collected.
# For tissue necropsy, small intestine fluid and cecal fluid were collected separately from all the animals into two separate square plastic bottles, and stored at −20° C. The length and diameter of the cecum and the colon was measured from one animal in each group and recorded for reference. Tissues were collected for pharmacokinetic analyses and include mesenteric lymph nodes, a Peyer's Patch, and five gastrointestinal sections, including cecum, proximal colon, transverse colon, distal colon, and rectum. All samples were weighed, and the tissue sample weights were recorded. In each of the five gastrointestinal sections, tissue samples were collected in three different areas where the mucosal surface was visible and not covered by luminal content by using an 8.0-mm punch biopsy tool. Around 3 grams of the total punched sample were collected into a pre-weighed 15-mL conical tube, and the tissue weight was recorded. Three mesenteric lymph nodes were collected from different areas and weighed. At least one Peyer's Patch was collected and weighed.
# Luminal contents were collected for pharmacokinetic analyses from the surface of the tissue from each of five gastrointestinal sections: cecum, proximal colon, transverse colon, distal colon, and rectum (total of 75). […]
# [3] = Tacrolimus concentration in gastrointestinal tissue, luminal content and rectal contents, and tissue/plasma ratios (Example 13); format: in vivo, Yorkshire-Cross farm swine; conditions: female, Yorkshire-Cross, pig; for concentration at 12 hr: other: intra-cecal device; for concentration at 12 hr / concentration at 12 h: 12 hr post dose
# Procedure: The primary objective of this study was to study the pharmacokinetics of oral versus intra-cecal administration of tacrolimus in normal Yorkshire-Cross farm swine.
# This study compares the effects of administration of: a single intra-cecal administration of a device containing 0.8 mL sterile vehicle solution (80% alcohol, 20% castor oil (HCO-60)); a single oral dose of tacrolimus at 0.09 mg/kg (in sterile vehicle solution); and a single intra-cecal administration of a device containing either 0.02 mg/kg (in sterile vehicle solution), 0.04 mg/kg (in sterile vehicle solution), or 0.09 mg/kg (in sterile vehicle solution).
# This study employed five groups of three female swine weighing approximately 45 to 50 kg at study start. Swine were randomly placed into animal rooms/pens as they are transferred from the delivery vehicle without regard to group. Group numbers were assigned to the rooms in order of room number. No further randomization procedure was employed.
# Animals in Group 1 received intra-cecally a device containing a vehicle solution (80% alcohol, 20% HCO-60). Animals in Group 2 received orally a liquid formulation of tacrolimus at 0.09 mg/kg per animal. Animals in Group 3 received intra-cecally a device containing tacrolimus at 0.02 mg/kg per device. Animals in Group 4 received intra-cecally a device containing tacrolimus 0.04 mg/kg per device. Animals in Group 5 received intra-cecally a device containing tacrolimus 0.09 mg/kg per device.
# [4] = female, Yorkshire-Cross, pig, 0.02 mg/kg
# [5] = female, Yorkshire-Cross, pig, 0.04 mg/kg
# [6] = female, Yorkshire-Cross, pig, 0.09 mg/kg
compound,measurement,setting,value
C=CC[C@@H]1/C=C(\C)C[C@H](C)C[C@H](OC)[C@H]2O[C@@](O)(C(=O)C(=O)N3CCCC[C@H]3C(=O)O[C@H](/C(C)=C/[C@@H]3CC[C@@H](O)[C@H](OC)C3)[C@H](C)[C@@H](O)CC1=O)[C@H](C)C[C@@H]2OC [tacrolimus],AUC(0-t),[1]; [4],15.3 ± 2.36 ng·h/mL
same,Cmax,[1]; [4],2.39 ± 0.57 ng/mL
same,concentration at 12 hr,[1]; [4],0.746 ± 0.038 ng/mL
same,AUC(0-t),[1]; [5],51.4 ± 4.04 ng·h/mL
same,Cmax,[1]; [5],9.2 ± 3.3 ng/mL
same,concentration at 12 hr,[1]; [5],1.96 ± 0.491 ng/mL
same,AUC(0-t),[1]; [6],130 ± 7.83 ng·h/mL
same,Cmax,[1]; [6],21.8 ± 4.73 ng/mL
same,concentration at 12 hr,[1]; [6],4.35 ± 0.561 ng/mL
same,concentration at 12 hr,"[1]; female, Yorkshire-Cross, pig, po, 0.09 mg/kg",0.568 ± 0.291 ng/mL
same,concentration at 12 h,"[1]; female, Yorkshire-Cross, pig, po, 0.09 mg/kg, Trough level (12 hr)",0.568 ng/mL
same,mean concentration and AUC0-12 hours of tacrolimus in the blood,"[1]; po, 0.09 mg/kg",higher
same,exposure AUC,[2],< 2000-12 ng·h/mL
same,"luminal content (spiral, transverse, and distal colon) concentrations",[2],Significantly higher
same,mean concentration of tacrolimus in the cecum tissue and the proximate colon tissue,[2],higher
same,tissue (spiral and transverse colon) concentrations,[2],Significantly higher
same,level of tacrolimus in tissue,[2]; po,No measurable level
same,rectal content concentration,[2]; po,no detectable level
same,Kp at 12 h,"[3]; cecum tissue, other: intra-cecal, 0.04 mg/kg, cecum, Group 4 IC (0.04 mg/kg), swine, read-out: Ratio Tissue (mean) (ng/g)/Trough(12 hr) (ng/ml)",26.7
same,Kp at 12 h,"[3]; cecum tissue, other: intra-cecal, 0.09 mg/kg, cecum, Group 5 IC (0.09 mg/kg), swine, read-out: Ratio Tissue (mean) (ng/g)/Trough(12 hr) (ng/ml)",17.8
same,Kp at 12 h,"[3]; distal colon tissue, other: intra-cecal, 0.02 mg/kg, distal colon, Group 3 IC (0.02 mg/kg), swine, read-out: Ratio Tissue (mean) (ng/g)/Trough(12 hr) (ng/ml)",59.9
same,Kp at 12 h,"[3]; distal colon tissue, other: intra-cecal, 0.04 mg/kg, distal colon, Group 4 IC (0.04 mg/kg), swine, read-out: Ratio Tissue (mean) (ng/g)/Trough(12 hr) (ng/ml)",14.6
same,Kp at 12 h,"[3]; distal colon tissue, other: intra-cecal, 0.09 mg/kg, distal colon, Group 5 IC (0.09 mg/kg), swine, read-out: Ratio Tissue (mean) (ng/g)/Trough(12 hr) (ng/ml)",15.6
same,Ratio Tissue (mean) (ng/g)/AUG(0-12 hr) (ng · hr/ml),"[3]; in vivo, po, 0.09 mg/kg, 12 h",0
same,Ratio Tissue (mean) (ng/g)/Trough(12 hr) (ng/ml),"[3]; in vivo, po, 0.09 mg/kg, 12 h",0
same,Kp at 12 h,"[3]; in vivo, po, 0.09 mg/kg, Ratio Tissue (mean) (ng/g)/AUG(0-12 hr) (ng · hr/ml)",0
same,Kp at 12 h,"[3]; in vivo, po, 0.09 mg/kg, Ratio Tissue (mean) (ng/g)/Trough(12 hr) (ng/ml)",0
same,concentration at 12 hr,"[3]; distal colon tissue, Group 3 IC (0.02 mg/kg), swine",44.7 ng/g
same,concentration at 12 hr,"[3]; proximal colon tissue, Group 3 IC (0.02 mg/kg), swine",50.2 ng/g
same,concentration at 12 hr,"[3]; spiral colon tissue, Group 3 IC (0.02 mg/kg), swine",204 ng/g
same,concentration at 12 hr,"[3]; spiral colon tissue, Group 4 IC (0.04 mg/kg), swine",342 ng/g
same,concentration at 12 hr,"[3]; spiral colon tissue, Group 5 IC (0.09 mg/kg), swine",783 ng/g
same,concentration at 12 hr,"[3]; transverse colon tissue, Group 3 IC (0.02 mg/kg), swine",128 ng/g
same,concentration at 12 hr,"[3]; transverse colon tissue, Group 4 IC (0.04 mg/kg), swine",85.8 ng/g
same,concentration at 12 hr,"[3]; transverse colon tissue, Group 5 IC (0.09 mg/kg), swine",272 ng/g
same,concentration at 12 h,"[3]; other: intra-cecal, cecum tissue, Group 4 IC (0.04 mg/kg), swine",52.3 ng/g
same,concentration at 12 h,"[3]; other: intra-cecal, cecum tissue, Group 5 IC (0.09 mg/kg), swine",77.3 ng/g
same,concentration at 12 h,"[3]; other: intra-cecal, distal colon tissue, Group 4 IC (0.04 mg/kg), swine",28.7 ng/g
same,concentration at 12 h,"[3]; other: intra-cecal, distal colon tissue, Group 5 IC (0.09 mg/kg), swine",67.7 ng/g
same,concentration at 12 h,"[3]; other: intra-cecal, proximal colon tissue, Group 4 IC (0.04 mg/kg), swine",98.3 ng/g
same,concentration at 12 h,"[3]; other: intra-cecal, proximal colon tissue, Group 5 IC (0.09 mg/kg), swine",157 ng/g
same,Kp at 12 h,"[3]; proximal colon tissue, other: intra-cecal, 0.02 mg/kg, proximal colon, Group 3 IC (0.02 mg/kg), swine, read-out: Ratio Tissue (mean) (ng/g)/Trough(12 hr) (ng/ml)",67.3
same,Kp at 12 h,"[3]; proximal colon tissue, other: intra-cecal, 0.04 mg/kg, proximal colon, Group 4 IC (0.04 mg/kg), swine, read-out: Ratio Tissue (mean) (ng/g)/Trough(12 hr) (ng/ml)",50.1
same,Kp at 12 h,"[3]; proximal colon tissue, other: intra-cecal, 0.09 mg/kg, proximal colon, Group 5 IC (0.09 mg/kg), swine, read-out: Ratio Tissue (mean) (ng/g)/Trough(12 hr) (ng/ml)",36.1
same,Kp at 12 h,"[3]; spiral colon tissue, other: intra-cecal, 0.02 mg/kg, spiral colon, Group 3 IC (0.02 mg/kg), swine, read-out: Ratio Tissue (mean) (ng/g)/Trough(12 hr) (ng/ml)",273
same,Kp at 12 h,"[3]; spiral colon tissue, other: intra-cecal, 0.04 mg/kg, spiral colon, Group 4 IC (0.04 mg/kg), swine, read-out: Ratio Tissue (mean) (ng/g)/Trough(12 hr) (ng/ml)",175
same,Kp at 12 h,"[3]; spiral colon tissue, other: intra-cecal, 0.09 mg/kg, spiral colon, Group 5 IC (0.09 mg/kg), swine, read-out: Ratio Tissue (mean) (ng/g)/Trough(12 hr) (ng/ml)",180
same,Kp at 12 h,"[3]; transverse colon tissue, other: intra-cecal, 0.02 mg/kg, transverse colon, Group 3 IC (0.02 mg/kg), swine, read-out: Ratio Tissue (mean) (ng/g)/Trough(12 hr) (ng/ml)",172
same,Kp at 12 h,"[3]; transverse colon tissue, other: intra-cecal, 0.04 mg/kg, transverse colon, Group 4 IC (0.04 mg/kg), swine, read-out: Ratio Tissue (mean) (ng/g)/Trough(12 hr) (ng/ml)",43.8
same,Kp at 12 h,"[3]; transverse colon tissue, other: intra-cecal, 0.09 mg/kg, transverse colon, Group 5 IC (0.09 mg/kg), swine, read-out: Ratio Tissue (mean) (ng/g)/Trough(12 hr) (ng/ml)",62.5
